Reference: patent US20200109126A1 (priority 2017, published 2020)
Entries after “also recorded” stand apart in the source; their conditions may differ.

Legend:
μOR [1] = biological target: T1, μOR (Homo sapiens, UniProt P35372); assay: BRET-based cAMP accumulation assay (SAR of PZM21-29); format: cell-based
μOR:N127C = biological target: T2, μOR:N127C (Homo sapiens, UniProt P35372, N129C); assay: Radioligand depletion assay, irreversible binding at μOR:N127C; conditions: wash-resistant inhibition of radioligand binding
T2 construct: expressed in transfected cells; host or cells: HEK 293
T2 sequence (P35372 whole entry N129C): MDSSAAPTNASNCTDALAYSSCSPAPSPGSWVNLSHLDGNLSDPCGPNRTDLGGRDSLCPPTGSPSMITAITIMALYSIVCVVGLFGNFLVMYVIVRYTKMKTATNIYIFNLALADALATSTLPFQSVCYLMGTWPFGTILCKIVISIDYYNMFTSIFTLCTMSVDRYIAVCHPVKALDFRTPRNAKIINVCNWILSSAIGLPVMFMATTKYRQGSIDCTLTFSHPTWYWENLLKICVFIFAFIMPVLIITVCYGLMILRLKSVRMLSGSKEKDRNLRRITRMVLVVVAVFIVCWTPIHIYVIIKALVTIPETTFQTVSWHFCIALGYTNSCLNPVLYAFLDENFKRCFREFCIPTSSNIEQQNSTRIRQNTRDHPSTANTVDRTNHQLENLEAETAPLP

C57BL/6J mice [2] = assay: Conditioned place preference; conditions: mouse, in vivo
Procedure: On day 1 (preconditioning day), mice were placed in the central chamber and allowed to explore freely for 30 minutes. Time spent in each compartment was used to estimate baseline chamber preferences and mice showing specific chamber bias more than 70% were not studied further. On days 2-9 (conditioning days) mice were injected with either vehicle or drug and paired with either the white mesh or the black rod chambers. All mice received vehicle on days 2, 4, 6, 8 and drug on days 3, 5, 7, 9. On day 10 (test day), mice were again placed in the central chamber as on day 1 and allowed to explore freely for 30 minutes. Time spent in each chamber was expressed as percentage preference.

μOR [3] = biological target: T1, μOR; assay: β-arrestin recruitment at μOR with GRK2 co-expression; format: cell-based
κOR = biological target: T3, κOR (Homo sapiens, UniProt P41145); assay: Gi/o Glosensor assay at κOR; format: cell-based
T3 construct: NIMH Psychoactive Drug Screening Program (PDSP)
T3 sequence (P41145 whole entry): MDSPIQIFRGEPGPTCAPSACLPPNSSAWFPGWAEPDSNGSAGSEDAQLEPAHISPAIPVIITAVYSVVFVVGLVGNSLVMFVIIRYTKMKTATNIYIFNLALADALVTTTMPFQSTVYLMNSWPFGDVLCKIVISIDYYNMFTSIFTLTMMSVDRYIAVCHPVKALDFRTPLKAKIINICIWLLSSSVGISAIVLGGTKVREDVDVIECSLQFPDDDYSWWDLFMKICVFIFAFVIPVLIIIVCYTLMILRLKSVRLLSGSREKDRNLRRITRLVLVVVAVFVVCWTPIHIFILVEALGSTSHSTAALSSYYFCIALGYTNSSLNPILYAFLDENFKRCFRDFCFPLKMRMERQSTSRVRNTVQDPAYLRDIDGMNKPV

μOR [4] = biological target: T1, μOR; assay: β-arrestin recruitment at μOR without GRK2; format: cell-based
C57BL/6J mice [5] = assay: Mouse whole body plethysmography (respiration); conditions: equianalgesic doses of PZM21, TRV130 and morphine (40 mg/kg, […], 10 mg/kg)

T1 sequence (P35372 whole entry): as the sequence (P35372 whole entry N129C) above, with C129N counted along it

Structure (SMILES): CN(C)[C@H](CNC(=O)NCCc1cn(CCSSCCN=[N+]=[N-])nn1)Cc1ccc(O)cc1 [PZM29, (S)-1-(2-(1-(2-((2-Azidoethyl)disulfanyl)ethyl)-1H-1,2,3-triazol-4-yl)ethyl)-3-(2-(dimethylamino)-3-(4-hydroxyphenyl)propyl)urea x CF3COOH]
- efficacy and potency as agonist (in words) (μOR [1]): retains its efficacy as an agonist
- irreversible binding to μOR:N127C (μOR:N127C): binds to the μOR:N127C variant irreversibly; also recorded: binds irreversibly to this mutant

Structure (SMILES): COc1ccsc1CNCC[C@@]1(c2ccccn2)CCOC2(CCCC2)C1 [TRV130, reference compound]
- conditioned place preference (C57BL/6J mice [2]): not significant relative to vehicle
- arrestin recruitment with over-expressed GRK2 (in words) (μOR [3]): arrestin recruitment
- KOR agonist activity (in words) (κOR): activates κOR with similar potency to morphine
- β-arrestin2 recruitment in the absence of GRK2 (in words) (μOR [4]): no β-arrestin2 recruitment
- respiration frequency (C57BL/6J mice [5]): significantly depresses respiration at 15 minutes
